From ChEMBL document CHEMBL3046565, “Fungicidal and herbicidal activities of berberine related alkaloids” (2000)

Key:
Assay type in all cases: functional
Parastagonospora nodorum [1] = assay: Antifungal activity against Phaeosphaeria nodorum on wheat plant at 25 ppm after 24 hr
Puccinia recondita = assay: Antifungal activity against Puccinia recondita on wheat plant assessed as disease control at 100 ppm after 24 hr
Phytophthora infestans = assay: microbe, parasite or virus in culture; conditions: in Oryza sativa, 24 h
Lemna minor = assay: Herbicidal activity against Lemna minor (common duckweed) at 1 ppm after 9 days relative to control
Ustilago maydis = assay: Antifungal activity against Ustilago maydis on rice plant at 25 ppm after 24 hr; conditions: Mycosarcoma maydis
Rhizoctonia solani = assay: Antifungal activity against Rhizoctonia solani on rice plant at 25 ppm after 24 hr
Parastagonospora nodorum [2] = assay: Antifungal activity against Phaeosphaeria nodorum on wheat plant assessed as disease control at 100 ppm after 24 hr
Zymoseptoria tritici = assay: Antifungal activity against Zymoseptoria tritici on wheat plant at 25 ppm after 24 hr
Pyricularia oryzae = assay: microbe, parasite or virus in culture; conditions: 24 h
[3] = system: Blumeria graminis f. sp. tritici; assay: Antifungal activity against Blumeria graminis f. sp. tritici on wheat plant assessed as disease control at 100 ppm after 24 hr
[4] = system: Agrostis stolonifera var. palustris; assay: Herbicidal activity against Agrostis stolonifera var. palustris at 1 ppm after 9 days relative to control

For `CCCc1c2[n+](cc3c(OC)c(OC)ccc13)CCc1cc3c(cc1-2)OCO3.[Cl-]`, the inhibition at 25 ppm (Parastagonospora nodorum [1]) was 0%, the Activity (Puccinia recondita) was 0% and the inhibition at 25 ppm (Phytophthora infestans) was 0%. It also gave an Activity (Lemna minor) of 65%, an inhibition at 25 ppm (Ustilago maydis) of 0% and an inhibition at 25 ppm (Rhizoctonia solani) of 0%. It also gave an Activity (Parastagonospora nodorum [2]) of 67%, an inhibition at 25 ppm (Zymoseptoria tritici) of 90% and an inhibition at 25 ppm (Pyricularia oryzae) of 0%. It also gave an Activity [3] of 0% and an Activity [4] of 0%.
